Measured values taken from patent US20240009175A9, “TETRAZOLE DERIVATIVES” (Merck Patent GmbH, priority 2020, published 2024).

Key:
CHO-K1 cells = assay: Micronucleus assay (MNT) in vitro; type: cell-based; design: key: A: negative, putative negative (micronuclei detected beyond threshold of 60% cyctotoxicity); B: positive; details: 24 hrs treatment, 0.2 μM to 100 μM
Method: The in vitro MNT assay is performed in CHO-K1 cells due to their stable and well-characterized karyotype, high sensitivity and suitability for a high content imaging approach. They have a basal spontaneous micronucleus frequency of 3-4%.
24 hrs after plating CHO-K1 cells are treated with test compounds for 24 hrs (in duplicates; fixed concentration ranges from 0.2 μM to 100 μM in 2-fold dilution steps). After a medium change cells are incubated for 24 hrs with Cytochalasin B to block cytokinesis and are then fixed and nuclei/micronuclei visualized with a DNA stain. Images are acquired with the Molecular Devices high content imagers IXU or IXM and are analyzed with the dedicated MetaXpress software micronucleus module. Criteria for scoring of micronuclei (MN) are the following: • diameter of the MN should be less than ⅓ of the main nucleus • MN should be separated from or marginally overlap with main nucleus (=no blebs) • MN should have similar staining as the main nucleus
At least 1000 binucleated cells are evaluated per treatment replicate. Mitomycin C is used as reference stimulator of micronucleus formation. Cytotoxicity is evaluated in parallel and defined by comparing total nuclei count in compound-treated samples to neutral control samples treated with vehicle only (1% DMSO) (100% cytotoxicity means all cells are dead or lost).
A test compound is regarded as POSITIVE if generation of micronuclei and exhibition of less than 60% cytotoxicity at the same concentration can be observed.
Compounds are scored only in the soluble concentration range.
Experimental data of the compounds shown in Table 1 in the MNT assay are shown in Table 2 below and classified in the following groups: […]

human rec ACSS2 = human rec ACSS2 (Homo sapiens (Human), UniProt Q9NR19); assay: Biochemical activity ACSS2 assay (AMP-Glo); details: human recombinant ACSS2, AMP-Glo, 180 min at 37° C.
Chain of human rec ACSS2 (Q9NR19 whole entry): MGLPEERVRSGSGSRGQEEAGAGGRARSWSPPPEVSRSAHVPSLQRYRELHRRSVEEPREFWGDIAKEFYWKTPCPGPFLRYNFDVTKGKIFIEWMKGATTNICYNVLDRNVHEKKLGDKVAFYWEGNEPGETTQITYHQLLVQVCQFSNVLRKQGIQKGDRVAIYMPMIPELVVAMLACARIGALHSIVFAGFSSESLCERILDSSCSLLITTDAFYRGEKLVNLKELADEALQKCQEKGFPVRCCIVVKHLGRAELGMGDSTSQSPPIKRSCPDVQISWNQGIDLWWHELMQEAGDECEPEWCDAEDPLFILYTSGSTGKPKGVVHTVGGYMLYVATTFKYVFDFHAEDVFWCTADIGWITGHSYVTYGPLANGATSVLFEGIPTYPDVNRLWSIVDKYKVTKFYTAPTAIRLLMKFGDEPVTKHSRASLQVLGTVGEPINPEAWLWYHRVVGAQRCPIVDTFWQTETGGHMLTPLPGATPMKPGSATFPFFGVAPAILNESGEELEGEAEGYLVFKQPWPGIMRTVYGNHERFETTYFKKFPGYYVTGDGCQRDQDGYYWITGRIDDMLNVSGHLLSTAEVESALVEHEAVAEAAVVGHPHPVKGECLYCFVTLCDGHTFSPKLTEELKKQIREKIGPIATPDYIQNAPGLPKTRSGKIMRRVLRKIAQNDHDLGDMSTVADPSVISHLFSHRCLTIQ
Text: Biochemical Activity ACSS2 Assay (IC50 ACSS2 Biochemical)
The biochemical activity assay for ACSS2 is based on the detection of released AMP by AMP-Glo™ Assay kit (Promega, Madison). The assay is run in three steps: the enzymatic reaction in which human rec ACSS2 activates acetate with ATP and Coenzyme A as cosubstrates to acetyl-CoA thereby releasing AMP and the detection reaction of AMP by AMP Glo assay in which after the destruction of the residual ATP with AMP Glo reagent 1 produced AMP is converted to ATP that is measured in a luciferase assay system (detection reagent). The ACSS2 activity correlates with the detected luminescence signal.
The assay was performed in Perkin Elmer 384 well white Proxiplates in a total volume of 8 μl.
1 nM (fc)C-term myc tagged ACSS2 (human, recombinant, Origene, Rockville, US) and a mixture of 100 μM (fc) ATP, 100 μM (fc) Coenzyme A and 500 μM (fc) sodium acetate were incubated in a total volume of 5 μl (50 mM Hepes, 1 mM Mg-chloride, 150 mM NaCl, 1 mM DTT, 0.01% (w/v) BSA, 0.3% DMSO, pH 7.5) in the absence or presence of the test compound (10 dilution concentrations, start conc 30 μM) for 180 min at 37° C. The reaction was stopped and residual ATP destroyed by the addition of 1 μl AMP Glo reagent solution (Promega, Madison, US). After 1h incubation at room temperature 2 μl of AMP Glo detection reagent was added and the assay was incubated for 0.75 hr at room temperature. The luminescence signal was measured with an Envision multimode reader (Perkin Elmer LAS Germany GmbH) at 700 nm in luminescence mode. The full value used was the inhibitor-free reaction. The pharmacological zero value was generated by addition of ACSS2 inhibitor (Ac-CoA Synthase Inhibitor—CAS 508186-14-9-Calbiochem) in a final concentration of 5 μM. The inhibitory values (IC50) were determined using the program Assay Analyzer® from GeneData.

ACSS2 = ACSS2 (Homo sapiens (Human), UniProt Q9NR19); assay: Cellular assay of 14C acetate incorporation into histones (IC50 ACSS2 cellular histone); type: cell-based; details: HCT-15 cells
Chain of ACSS2 (Q9NR19 whole entry): as above
Text: Cellular Assay of ^14C Acetate Incorporation into Histones (IC50 ACSS2 Cellular Histone)
This protocol describes a cellular assay capable to quantify endogenous histone acetylation activity in the human HCT-15 cancer cell line following the incorporation of extracellularly administered radiolabeled ^14C acetate with a scintillation based read out on acid extracted histones.
HCT-15 cells are trypsinized, washed and suspended in DMEM culture medium supplemented with penicillin/streptomycin (100 U/mL), sodium pyruvate (1 mM), and 10% FBS
Compounds serial dilutions are prepared in 96-well V-bottom microplate from 10 mM stock solutions in DMSO. From these dilutions 0.5 μl are transferred to a fresh plate including pure DMSO as negative control. The dilutions are prepared such, that the final concentration in the assay is 1/400 of the concentration in the serial dilution. The final DMSO concentration in the assay is 0.25%.
The cell suspension is seeded at densities of 2×10^5 cells per 170 μl into individual wells of a 96 well plate each containing 0.5 μl aliquots of compound serial dilutions and are kept for 1 h in a cell incubator. To each well 30 μL of a mixture containing 0.5 mCi/mL of ^14C-acetate with full medium are added. Then, the wells are incubated for 3 hrs in the cell incubator.
Further steps of the procedure should be conducted on ice or instrumentations precooled to 4° C. Cells are sedimented in the 96-well V-bottom microplate by centrifugation (Eppendorf 5804 R) at 1200 rpm for 5 min. The supernatant is removed and the cells are washed twice with 200 μL of PBS-NaB (5 mM sodium butyrate) buffer by iterative resuspension and centrifugation. Finally, the cells are resuspended in 50 μL of TEB (PBS-NaB+0.5% Triton X-100) and left on ice for 10 minutes. After centrifugation at 2300 rpm for 10 minutes at 4° C. the supernatant is removed, the remaining pellet is suspended in 50 μL of 0.2M HCl and incubated over night at 4° C. After incubation the well plate is shaken for 2 minutes in a MTP plate shaker set to 1200 rpm and then centrifuged at 3700 rpm for 10 mins. The lysate is carefully aspirated (˜43 μL) and transferred into a white MTP plate (Greiner bio-one 65509). 90 μL of Ultima Gold XR scintillation cocktail are added and the plates are sealed with a transparent cover tape before mixing vigorously using plate shaker set to 1200 rpm. Radioactivity from ^14C incorporation in the wells is measured as CPM count in a MicroBeta Trilux luminescence counter.

Compound | MNT (CHO-K1 cells) | IC50 (human rec ACSS2) | IC50 (ACSS2)
CCc1c(C(O)(c2ccccc2)c2ccccn2)nc2cc(Cl)c(-c3nnn[nH]3)cn12 (single isomer, unassigned) [Compound 7, [7-chloro-3-ethyl-6-(1H-tetrazol-5-yl)imidazo[1,2-a]pyridin-2-yl]-phenyl-(2-pyridyl)methanol] | A | 10 to 100 nM | –
CCc1c(C(O)(c2ccccc2)c2ncccn2)nc2cc(OC)c(-c3nnn[nH]3)cn12 (single isomer, unassigned) [Compound 14, [3-Ethyl-7-methoxy-6-(1H-tetrazol-5-yl)-imidazo[1,2-a]pyridin-2-yl]-phenyl-pyrimidin-2-yl-methanol] | – | 10 to 100 nM | 100 to 10000 nM
CCn1c(C(O)(c2ccccc2F)c2ccc(OC(F)F)cc2F)nc2nc(OC)c(-c3nnn[nH]3)cc21 (racemic) [Compound 54, [4-(difluoromethoxy)-2-fluorophenyl][1-ethyl-5-methoxy-6-(1H-1,2,3,4-tetrazol-5-yl)-1H-imidazo[4,5-b]pyridin-2-yl](2-fluorophenyl)methanol] | – | 1 to 10 nM | 1 to 10 nM
CCn1c(C(O)(c2ccccc2)c2ccccn2)nc2nc(OC)c(-c3nnn[nH]3)cc21 (single isomer, unassigned) [Compound 41, [1-ethyl-5-methoxy-6-(1H-1,2,3,4-tetrazol-5-yl)-1H-imidazo[4,5-b]pyridin-2-yl](phenyl)(pyridin-2-yl)methanol] | – | 10 to 100 nM | 1 to 10 nM
CCn1c(C(O)(c2ccccc2)c2ccncn2)nc2nc(OC)c(-c3nnn[nH]3)cc21 (racemic) [Compound 25, [1-ethyl-5-methoxy-6-(1H-1,2,3,4-tetrazol-5-yl)-1H-imidazo[4,5-b]pyridin-2-yl](phenyl)(pyrimidin-4-yl)methanol] | – | 1 to 10 nM | 1 to 10 nM
CCn1c(C(O)(c2ccccc2)c2ccc(OC(F)F)cc2F)nc2nc(OC)c(-c3nnn[nH]3)cc21 (racemic) [Compound 47, [4-(difluoromethoxy)-2-fluorophenyl][1-ethyl-5-methoxy-6-(1H-1,2,3,4-tetrazol-5-yl)-1H-imidazo[4,5-b]pyridin-2-yl]phenylmethanol] | A | 1 to 10 nM | 1 to 10 nM
CCc1cc2nc(C(O)(c3ccccc3)c3ccccc3)c(CC)n2cc1-c1nnn[nH]1 [Compound 1, [3,7-diethyl-6-(1 H-1,2,3,4-tetrazol-5-yl)imidazo[1,2-a]pyridin-2-yl]diphenylmethanol] | – | 1 to 10 nM | –
COc1nc2nc(C(O)(c3ccccc3)c3ccccc3)n(C)c2cc1-c1nnn[nH]1 [Compound 24, [5-methoxy-1-methyl-6-(1H-1,2,3,4-tetrazol-5-yl)-1H-imidazo[4,5-b]pyridin-2-yl]diphenylmethanol] | – | 0.01 to 1 nM | –
CCn1c(C(O)(c2ccccc2)c2ccc(OC(F)F)cc2)nc2nc(OC)c(-c3nnn[nH]3)cc21 (racemic) [Compound 53, [4-(difluoromethoxy)phenyl][1-ethyl-5-methoxy-6-(1H-1,2,3,4-tetrazol-5-yl)-1H-imidazo[4,5-b]pyridin-2-yl]phenylmethanol] | – | 1 to 10 nM | 10 to 100 nM
CCn1c(C(O)(c2ccccc2)c2ccncc2)nc2nc(OC)c(-c3nnn[nH]3)cc21 (racemic) [Compound 43, [1-ethyl-5-methoxy-6-(1H-1,2,3,4-tetrazol-5-yl)-1H-imidazo[4,5-b]pyridin-2-yl](phenyl)(pyridin-4-yl)methanol] | – | 10 to 100 nM | 100 to 10000 nM
[2H]c1c([2H])c([2H])c(C(O)(c2c([2H])c([2H])c([2H])c([2H])c2[2H])c2nc3nc(OC)c(-c4nnn[nH]4)cc3n2CC)c([2H])c1[2H] [Compound 63, [1-ethyl-5-methoxy-6-(1H-1,2,3,4-tetrazol-5-yl)-1H-imidazo[4,5-b]pyridin-2-yl]bis[(2,3,4,5,6-^2H5)phenyl]methanol] | – | 0.01 to 1 nM | 1 to 10 nM
CCc1c(C(O)(c2ccccc2)c2ccn(C)n2)nc2cc(OC)c(-c3nnn[nH]3)cn12 (single isomer, unassigned) [Compound 18, [3-Ethyl-7-methoxy-6-(1H-tetrazol-5-yl)-imidazo[1,2-a]pyridin-2-yl]-(1-methyl-1H-pyrazol-3-yl)-phenyl-methanol] | – | 10 to 100 nM | –
CCn1c(C(O)(c2ccccc2C)c2ccccc2C)nc2nc(OC)c(-c3nnn[nH]3)cc21 [Compound 39, [1-ethyl-5-methoxy-6-(1H-1,2,3,4-tetrazol-5-yl)-1H-imidazo[4,5-b]pyridin-2-yl]bis(2-methylphenyl)methanol] | – | 10 to 100 nM | 10 to 100 nM
CCn1c(C(O)(c2ccccc2)c2nccs2)nc2nc(OC)c(-c3nnn[nH]3)cc21 (single isomer, unassigned) [Compound 32, [1-ethyl-5-methoxy-6-(1H-1,2,3,4-tetrazol-5-yl)-1H-imidazo[4,5-b]pyridin-2-yl](phenyl)(1,3-thiazol-2-yl)methanol] | A | 0.01 to 1 nM | –
CCc1c(C(O)(c2ccccc2)c2ccn(C)n2)nc2cc(OC)c(-c3nnn[nH]3)cn12 (single isomer, unassigned) [Compound 17, [3-Ethyl-7-methoxy-6-(1H-tetrazol-5-yl)-imidazo[1,2-a]pyridin-2-yl]-(1-methyl-1H-pyrazol-3-yl)-phenyl-methanol] | – | 100 to 10000 nM | –
CCc1c(C(O)(c2ccccc2)c2ncccn2)nc2cc(OC)c(-c3nnn[nH]3)cn12 (single isomer, unassigned) [Compound 15, [3-Ethyl-7-methoxy-6-(1H-tetrazol-5-yl)-imidazo[1,2-a]pyridin-2-yl]-phenyl-pyrimidin-2-yl-methanol] | – | 100 to 10000 nM | –
CCn1c(C(O)(c2ccccc2)c2cccnc2)nc2nc(OC)c(-c3nnn[nH]3)cc21 (racemic) [Compound 44, [1-ethyl-5-methoxy-6-(1H-1,2,3,4-tetrazol-5-yl)-1H-imidazo[4,5-b]pyridin-2-yl](phenyl)(pyridin-3-yl)methanol] | – | 10 to 100 nM | 100 to 10000 nM
